Key:
Assay type in all cases: cell-based
[1] = target: T1, WEE1 (Homo sapiens, UniProt P30291+Q96SW2); test: Western blot degradation of WEE1 in hPBMC
T1 construct: endogenous in cells; host or cells: hPBMC
Method: (§1) Conventional Western blot assay was performed to evaluate the effects of the compounds of the present disclosure on the expression of target proteins in cells.
(§2) • (1) Cell Seeding and Protein Harvesting: The selected cells were processed according to the cell seeding procedure and protein harvesting procedure in Table III-2.
(§3) • (2) To the collected supernatant, 5×SDS sample loading buffer was added, followed by denaturation at 95° C. for 5 minutes. The denatured samples were then separated by SDS-PAGE electrophoresis on a polyacrylamide gel. Proteins were transferred to a nitrocellulose membrane ([…] NC membrane), blocked with blocking buffer at room temperature for 1 hour, and subjected to antibody incubation and development procedures according to the antibody manufacturer's instructions (Cell Signaling Technology).
(§4) Half-Maximal Degradation Concentration value (the drug concentration required for degrading proteins by 50%, abbreviated as DC50) reads method: comparing the grayscale values of Western blot bands from drug-treated samples with those from blank DMSO-treated controls, and identifying the drug concentration range at which the grayscale value is half that of the DMSO-treated control bands.
(§5) DC50 values can be calculated using ImageJ software to measure grayscale values of Western blot bands from drug-treated samples. The concentration-response curve is fitted to estimate the drug concentration corresponding to half the grayscale value.
(§6) Target protein remaining (0%) refers to the percentage of target protein remaining in hPBMC cells after treatment with protein degrader compounds.
(§7) Calculation method for target protein remaining (0%): Use ImageJ software to measure grayscale values of Western blot bands from drug (protein degrader)-treated samples. The grayscale value of drug-treated bands is divided by that of internal control protein bands, and the resulting quotient is normalized to obtain the relative percentage of remaining target protein after protein degrader treatment.

[2] = target: T2, IKZF1 (Homo sapiens, UniProt Q13422+Q96SW2); test: Western blot degradation of IKZF1 in hPBMC
T2 construct: endogenous in cells; host or cells: hPBMC
T2 sequence (Q13422 whole entry): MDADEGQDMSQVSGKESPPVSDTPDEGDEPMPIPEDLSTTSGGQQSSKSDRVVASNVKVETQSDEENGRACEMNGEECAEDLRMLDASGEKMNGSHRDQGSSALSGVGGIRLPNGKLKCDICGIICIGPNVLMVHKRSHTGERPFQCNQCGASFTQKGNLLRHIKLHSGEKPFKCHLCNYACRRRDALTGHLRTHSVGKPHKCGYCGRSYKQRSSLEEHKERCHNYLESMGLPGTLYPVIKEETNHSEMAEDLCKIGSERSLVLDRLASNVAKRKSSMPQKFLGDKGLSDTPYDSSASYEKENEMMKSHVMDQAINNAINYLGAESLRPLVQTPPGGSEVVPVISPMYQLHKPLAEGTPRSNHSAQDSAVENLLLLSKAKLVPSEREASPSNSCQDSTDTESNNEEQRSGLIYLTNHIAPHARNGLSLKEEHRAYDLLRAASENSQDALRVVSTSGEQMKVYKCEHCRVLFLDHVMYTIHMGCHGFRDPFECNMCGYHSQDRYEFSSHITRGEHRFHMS
T2 sequence (Q96SW2 whole entry): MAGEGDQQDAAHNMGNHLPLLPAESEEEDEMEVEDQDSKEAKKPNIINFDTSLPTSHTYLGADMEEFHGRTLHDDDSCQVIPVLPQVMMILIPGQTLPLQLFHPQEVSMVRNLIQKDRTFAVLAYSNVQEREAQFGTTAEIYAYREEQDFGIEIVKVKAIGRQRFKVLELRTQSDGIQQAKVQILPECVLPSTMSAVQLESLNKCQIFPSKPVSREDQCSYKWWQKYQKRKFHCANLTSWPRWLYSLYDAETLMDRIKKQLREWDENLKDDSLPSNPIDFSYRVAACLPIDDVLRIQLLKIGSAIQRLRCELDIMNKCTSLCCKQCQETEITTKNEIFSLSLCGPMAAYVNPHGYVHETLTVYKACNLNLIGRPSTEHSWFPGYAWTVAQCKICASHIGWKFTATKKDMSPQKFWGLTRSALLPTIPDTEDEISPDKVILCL
T2 sequence (Q16531 whole entry partner): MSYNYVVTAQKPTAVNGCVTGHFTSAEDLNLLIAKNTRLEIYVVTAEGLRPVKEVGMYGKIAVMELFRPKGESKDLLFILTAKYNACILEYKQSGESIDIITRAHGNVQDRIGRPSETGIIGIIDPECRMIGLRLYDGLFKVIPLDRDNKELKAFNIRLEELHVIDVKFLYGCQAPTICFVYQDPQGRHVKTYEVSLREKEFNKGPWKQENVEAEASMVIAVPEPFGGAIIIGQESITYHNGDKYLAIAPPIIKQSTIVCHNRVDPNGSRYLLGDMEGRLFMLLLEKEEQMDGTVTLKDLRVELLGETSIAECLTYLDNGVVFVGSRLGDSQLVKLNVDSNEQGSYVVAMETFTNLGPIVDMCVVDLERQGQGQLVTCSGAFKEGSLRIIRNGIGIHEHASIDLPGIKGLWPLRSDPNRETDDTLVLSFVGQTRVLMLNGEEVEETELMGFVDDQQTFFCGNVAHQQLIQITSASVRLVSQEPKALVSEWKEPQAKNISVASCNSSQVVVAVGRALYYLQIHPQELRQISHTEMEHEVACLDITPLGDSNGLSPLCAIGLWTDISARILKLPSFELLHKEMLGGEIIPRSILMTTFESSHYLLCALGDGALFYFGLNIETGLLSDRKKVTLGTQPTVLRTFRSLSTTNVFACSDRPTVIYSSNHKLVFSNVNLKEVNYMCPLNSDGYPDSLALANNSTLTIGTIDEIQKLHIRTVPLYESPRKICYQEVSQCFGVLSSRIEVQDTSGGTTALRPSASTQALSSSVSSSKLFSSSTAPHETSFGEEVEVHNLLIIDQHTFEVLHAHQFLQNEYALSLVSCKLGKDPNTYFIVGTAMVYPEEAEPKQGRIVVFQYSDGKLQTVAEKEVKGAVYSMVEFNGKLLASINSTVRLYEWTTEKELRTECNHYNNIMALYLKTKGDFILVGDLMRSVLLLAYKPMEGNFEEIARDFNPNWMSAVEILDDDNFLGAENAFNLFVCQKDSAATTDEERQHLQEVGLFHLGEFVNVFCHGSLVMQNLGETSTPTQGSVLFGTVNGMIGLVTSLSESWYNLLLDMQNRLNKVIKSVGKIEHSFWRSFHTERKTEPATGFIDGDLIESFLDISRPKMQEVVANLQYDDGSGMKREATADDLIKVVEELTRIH
Method: as §1, §2, §3, §4, §5, §6, §7

[3] = target: T3, IKZF2 (Homo sapiens, UniProt Q96SW2+Q9UKS7); test: Western blot degradation of IKZF2 in hPBMC
T3 construct: endogenous in cells; host or cells: hPBMC
T3 sequence (Q9UKS7 whole entry): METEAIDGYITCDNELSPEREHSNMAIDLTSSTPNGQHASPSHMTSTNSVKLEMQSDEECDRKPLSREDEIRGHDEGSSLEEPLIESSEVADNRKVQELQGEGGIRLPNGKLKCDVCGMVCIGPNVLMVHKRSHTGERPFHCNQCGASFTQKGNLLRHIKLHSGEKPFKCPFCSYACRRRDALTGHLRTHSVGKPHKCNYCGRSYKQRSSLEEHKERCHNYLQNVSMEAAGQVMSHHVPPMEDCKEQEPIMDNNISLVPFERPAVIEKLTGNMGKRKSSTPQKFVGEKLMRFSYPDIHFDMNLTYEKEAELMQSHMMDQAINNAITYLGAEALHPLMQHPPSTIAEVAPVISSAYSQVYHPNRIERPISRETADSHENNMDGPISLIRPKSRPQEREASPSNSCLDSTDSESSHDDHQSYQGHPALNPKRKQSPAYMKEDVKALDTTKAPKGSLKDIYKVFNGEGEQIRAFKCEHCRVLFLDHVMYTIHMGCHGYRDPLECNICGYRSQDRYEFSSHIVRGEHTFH
T3 sequence (Q96SW2 whole entry): as the sequence (Q96SW2 whole entry) above
T3 sequence (Q16531 whole entry partner): as the sequence (Q16531 whole entry partner) above
Method: as §1, §2, §3, §4, §5, §6, §7

[4] = target: T4, IKZF3 (Homo sapiens, UniProt Q96SW2+Q9UKT9); test: Western blot degradation of IKZF3 in hPBMC
T4 construct: endogenous in cells; host or cells: hPBMC
T4 sequence (Q9UKT9 whole entry): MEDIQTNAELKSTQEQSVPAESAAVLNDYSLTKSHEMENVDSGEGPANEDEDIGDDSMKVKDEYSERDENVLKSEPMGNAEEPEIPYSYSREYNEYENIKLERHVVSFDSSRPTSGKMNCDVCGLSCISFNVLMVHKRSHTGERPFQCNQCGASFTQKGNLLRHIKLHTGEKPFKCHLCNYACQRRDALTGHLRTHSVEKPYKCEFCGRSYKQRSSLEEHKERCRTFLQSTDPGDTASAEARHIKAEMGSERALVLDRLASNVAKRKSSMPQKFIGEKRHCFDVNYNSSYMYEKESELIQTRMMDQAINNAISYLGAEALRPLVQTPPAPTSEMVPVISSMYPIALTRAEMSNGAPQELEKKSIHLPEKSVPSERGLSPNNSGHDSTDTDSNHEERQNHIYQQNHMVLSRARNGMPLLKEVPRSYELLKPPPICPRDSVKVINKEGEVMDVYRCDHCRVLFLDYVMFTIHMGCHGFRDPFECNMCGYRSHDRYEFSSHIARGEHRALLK
T4 sequence (Q96SW2 whole entry): as the sequence (Q96SW2 whole entry) above
T4 sequence (Q16531 whole entry partner): as the sequence (Q16531 whole entry partner) above
Method: as §1, §2, §3, §4, §5, §6, §7

[5] = target: T5, CK1a (Homo sapiens, UniProt P48729+Q96SW2); test: Western blot degradation of CK1a in hPBMC
T5 construct: endogenous in cells; host or cells: hPBMC
T5 sequence (P48729 whole entry): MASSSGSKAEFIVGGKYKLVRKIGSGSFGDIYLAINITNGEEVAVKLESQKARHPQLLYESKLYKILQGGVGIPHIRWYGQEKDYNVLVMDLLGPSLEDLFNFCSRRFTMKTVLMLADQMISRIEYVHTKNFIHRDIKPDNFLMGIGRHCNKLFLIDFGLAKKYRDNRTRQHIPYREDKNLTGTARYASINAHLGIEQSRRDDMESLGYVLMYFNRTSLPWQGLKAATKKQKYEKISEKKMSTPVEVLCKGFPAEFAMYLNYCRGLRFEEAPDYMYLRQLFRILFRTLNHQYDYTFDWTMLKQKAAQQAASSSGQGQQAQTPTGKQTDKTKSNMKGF
T5 sequence (Q96SW2 whole entry): as the sequence (Q96SW2 whole entry) above
T5 sequence (Q16531 whole entry partner): as the sequence (Q16531 whole entry partner) above
Method: as §1, §2, §3, §4, §5, §6, §7

[6] = target: T6, GSPT1 (Homo sapiens, UniProt P15170+Q96SW2); test: Western blot degradation of GSPT1 in hPBMC
T6 construct: endogenous in cells; host or cells: hPBMC
T6 sequence (P15170 whole entry): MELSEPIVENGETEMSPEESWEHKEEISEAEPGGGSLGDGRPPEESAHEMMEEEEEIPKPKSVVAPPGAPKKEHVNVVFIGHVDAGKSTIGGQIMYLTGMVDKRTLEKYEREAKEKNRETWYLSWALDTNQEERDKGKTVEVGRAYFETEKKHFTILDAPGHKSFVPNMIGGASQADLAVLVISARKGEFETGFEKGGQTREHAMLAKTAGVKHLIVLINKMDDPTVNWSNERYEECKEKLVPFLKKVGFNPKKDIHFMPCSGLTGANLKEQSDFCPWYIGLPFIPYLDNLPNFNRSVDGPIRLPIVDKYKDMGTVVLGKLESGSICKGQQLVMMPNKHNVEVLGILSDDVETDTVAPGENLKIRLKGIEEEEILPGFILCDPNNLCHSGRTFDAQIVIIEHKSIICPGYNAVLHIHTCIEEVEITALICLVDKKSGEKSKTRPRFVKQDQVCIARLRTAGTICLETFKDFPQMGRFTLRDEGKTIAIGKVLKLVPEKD
T6 sequence (Q96SW2 whole entry): as the sequence (Q96SW2 whole entry) above
T6 sequence (Q16531 whole entry partner): as the sequence (Q16531 whole entry partner) above
Method: as §1, §2, §3, §4, §5, §6, §7

SMILES: NCc1ccc(N2CCC(=O)NC2=O)cn1 [GT-07048, 1-(6-(aminomethyl)pyridin-3-yl)dihydropyrimidine-2,4(1H,3H)-dione]
- Degradation of substrate protein WEE1 (substrate protein remaining %) [1]: B (B is defined as substrate protein remaining % > 80%)
- Degradation of substrate protein IKZF1 (substrate protein remaining %) [2]: A (A is defined as 0% ≤ substrate protein remaining % ≤ 80%)
- Degradation of substrate protein IKZF2 (substrate protein remaining %) [3]: A (A is defined as 0% ≤ substrate protein remaining % ≤ 80%)
- Degradation of substrate protein IKZF3 (substrate protein remaining %) [4]: A (A is defined as 0% ≤ substrate protein remaining % ≤ 80%)
- Degradation of substrate protein CK1a (substrate protein remaining %) [5]: A (A is defined as 0% ≤ substrate protein remaining % ≤ 80%)
- Degradation of substrate protein GSPT1 (substrate protein remaining %) [6]: A (A is defined as 0% ≤ substrate protein remaining % ≤ 80%)

SMILES: O=C1CCC(Nc2ccc(CO)cn2)C(=O)N1 (stereo not drawn) [GT-07551, 3-((5-(hydroxymethyl)pyridin-2-yl)amino)piperidine-2,6-dione]
- Degradation of substrate protein WEE1 (substrate protein remaining %) [1]: A (A is defined as 0% ≤ substrate protein remaining % ≤ 80%)
- Degradation of substrate protein IKZF1 (substrate protein remaining %) [2]: B (B is defined as substrate protein remaining % > 80%)
- Degradation of substrate protein IKZF2 (substrate protein remaining %) [3]: A (A is defined as 0% ≤ substrate protein remaining % ≤ 80%)
- Degradation of substrate protein IKZF3 (substrate protein remaining %) [4]: B (B is defined as substrate protein remaining % > 80%)
- Degradation of substrate protein CK1a (substrate protein remaining %) [5]: B (B is defined as substrate protein remaining % > 80%)
- Degradation of substrate protein GSPT1 (substrate protein remaining %) [6]: B (B is defined as substrate protein remaining % > 80%)

SMILES: O=C1CCN(c2cnc(CO)c(F)c2)C(=O)N1 [GT-07555, 1-(5-fluoro-6-(hydroxymethyl)pyridin-3-yl)dihydropyrimidine-2,4(1H,3H)-dione]
- Degradation of substrate protein WEE1 (substrate protein remaining %) [1]: A (A is defined as 0% ≤ substrate protein remaining % ≤ 80%)
- Degradation of substrate protein IKZF1 (substrate protein remaining %) [2]: A (A is defined as 0% ≤ substrate protein remaining % ≤ 80%)
- Degradation of substrate protein IKZF2 (substrate protein remaining %) [3]: A (A is defined as 0% ≤ substrate protein remaining % ≤ 80%)
- Degradation of substrate protein IKZF3 (substrate protein remaining %) [4]: A (A is defined as 0% ≤ substrate protein remaining % ≤ 80%)
- Degradation of substrate protein CK1a (substrate protein remaining %) [5]: A (A is defined as 0% ≤ substrate protein remaining % ≤ 80%)
- Degradation of substrate protein GSPT1 (substrate protein remaining %) [6]: A (A is defined as 0% ≤ substrate protein remaining % ≤ 80%)

SMILES: CC(C)(C)[Si](C)(C)OCc1cncc(NC2CCC(=O)NC2=O)c1 (stereo not drawn) [GT-07449, 3-((5-(((tert-butyldimethylsilyl)oxy)methyl)pyridin-3-yl)amino)piperidine-2,6-dione]
- Degradation of substrate protein WEE1 (substrate protein remaining %) [1]: B (B is defined as substrate protein remaining % > 80%)
- Degradation of substrate protein IKZF1 (substrate protein remaining %) [2]: B (B is defined as substrate protein remaining % > 80%)
- Degradation of substrate protein IKZF2 (substrate protein remaining %) [3]: A (A is defined as 0% ≤ substrate protein remaining % ≤ 80%)
- Degradation of substrate protein IKZF3 (substrate protein remaining %) [4]: B (B is defined as substrate protein remaining % > 80%)
- Degradation of substrate protein CK1a (substrate protein remaining %) [5]: B (B is defined as substrate protein remaining % > 80%)
- Degradation of substrate protein GSPT1 (substrate protein remaining %) [6]: B (B is defined as substrate protein remaining % > 80%)

SMILES: O=C1CCN(c2cncc(CCl)n2)C(=O)N1 [GT-07728, 1-(6-(chloromethyl)pyrazin-2-yl)dihydropyrimidine-2,4(1H,3H)-dione]
- Degradation of substrate protein WEE1 (substrate protein remaining %) [1]: A (A is defined as 0% ≤ substrate protein remaining % ≤ 80%)
- Degradation of substrate protein IKZF1 (substrate protein remaining %) [2]: A (A is defined as 0% ≤ substrate protein remaining % ≤ 80%)
- Degradation of substrate protein IKZF2 (substrate protein remaining %) [3]: A (A is defined as 0% ≤ substrate protein remaining % ≤ 80%)
- Degradation of substrate protein IKZF3 (substrate protein remaining %) [4]: A (A is defined as 0% ≤ substrate protein remaining % ≤ 80%)
- Degradation of substrate protein CK1a (substrate protein remaining %) [5]: B (B is defined as substrate protein remaining % > 80%)
- Degradation of substrate protein GSPT1 (substrate protein remaining %) [6]: B (B is defined as substrate protein remaining % > 80%)

SMILES: O=C1CCC(c2cncc(CCl)c2)C(=O)N1 (stereo not drawn) [GT-06991, 3-(5-(chloromethyl)pyridin-3-yl)piperidine-2,6-dione]
- Degradation of substrate protein WEE1 (substrate protein remaining %) [1]: B (B is defined as substrate protein remaining % > 80%)
- Degradation of substrate protein IKZF1 (substrate protein remaining %) [2]: B (B is defined as substrate protein remaining % > 80%)
- Degradation of substrate protein IKZF2 (substrate protein remaining %) [3]: A (A is defined as 0% ≤ substrate protein remaining % ≤ 80%)
- Degradation of substrate protein IKZF3 (substrate protein remaining %) [4]: B (B is defined as substrate protein remaining % > 80%)
- Degradation of substrate protein CK1a (substrate protein remaining %) [5]: B (B is defined as substrate protein remaining % > 80%)
- Degradation of substrate protein GSPT1 (substrate protein remaining %) [6]: B (B is defined as substrate protein remaining % > 80%)

SMILES: O=C1CCC(c2ccc(CO)cn2)C(=O)N1 (stereo not drawn) [GT-07075, 3-(5-(hydroxymethyl)pyridin-2-yl)piperidine-2,6-dione]
- Degradation of substrate protein WEE1 (substrate protein remaining %) [1]: B (B is defined as substrate protein remaining % > 80%)
- Degradation of substrate protein IKZF1 (substrate protein remaining %) [2]: B (B is defined as substrate protein remaining % > 80%)
- Degradation of substrate protein IKZF2 (substrate protein remaining %) [3]: A (A is defined as 0% ≤ substrate protein remaining % ≤ 80%)
- Degradation of substrate protein IKZF3 (substrate protein remaining %) [4]: A (A is defined as 0% ≤ substrate protein remaining % ≤ 80%)
- Degradation of substrate protein CK1a (substrate protein remaining %) [5]: B (B is defined as substrate protein remaining % > 80%)
- Degradation of substrate protein GSPT1 (substrate protein remaining %) [6]: A (A is defined as 0% ≤ substrate protein remaining % ≤ 80%)

SMILES: O=C1CCN(c2cnc(F)c(CCl)c2)C(=O)N1 [GT-07633, 1-(5-(chloromethyl)-6-fluoropyridin-3-yl)dihydropyrimidine-2,4(1H,3H)-dione]
- Degradation of substrate protein WEE1 (substrate protein remaining %) [1]: A (A is defined as 0% ≤ substrate protein remaining % ≤ 80%)
- Degradation of substrate protein IKZF1 (substrate protein remaining %) [2]: B (B is defined as substrate protein remaining % > 80%)
- Degradation of substrate protein IKZF2 (substrate protein remaining %) [3]: A (A is defined as 0% ≤ substrate protein remaining % ≤ 80%)
- Degradation of substrate protein IKZF3 (substrate protein remaining %) [4]: B (B is defined as substrate protein remaining % > 80%)
- Degradation of substrate protein CK1a (substrate protein remaining %) [5]: A (A is defined as 0% ≤ substrate protein remaining % ≤ 80%)
- Degradation of substrate protein GSPT1 (substrate protein remaining %) [6]: B (B is defined as substrate protein remaining % > 80%)

SMILES: O=C1CCN(c2ccc(CCl)cn2)C(=O)N1 [GT-07009, 1-(5-(chloromethyl)pyridin-2-yl)dihydropyrimidine-2,4(1H,3H)-dione]
- Degradation of substrate protein WEE1 (substrate protein remaining %) [1]: B (B is defined as substrate protein remaining % > 80%)
- Degradation of substrate protein IKZF1 (substrate protein remaining %) [2]: B (B is defined as substrate protein remaining % > 80%)
- Degradation of substrate protein IKZF2 (substrate protein remaining %) [3]: B (B is defined as substrate protein remaining % > 80%)
- Degradation of substrate protein IKZF3 (substrate protein remaining %) [4]: B (B is defined as substrate protein remaining % > 80%)
- Degradation of substrate protein CK1a (substrate protein remaining %) [5]: A (A is defined as 0% ≤ substrate protein remaining % ≤ 80%)
- Degradation of substrate protein GSPT1 (substrate protein remaining %) [6]: B (B is defined as substrate protein remaining % > 80%)

From patent US20260274829A1, “NEW E3 UBIQUITIN LIGASE LIGAND, PROTEIN DEGRADATION AGENT AND USE THEREOF” (GLUETACS THERAPEUTICS (SHANGHAI) CO., LTD., priority 2023, published 2026)
